The NIST ThermoML archive (doi:10.1016/j.fluid.2014.05.031)
Values joined by “and” are separate entries in the source; they are usually repeats but may differ in a detail not shown here. Equal entries are not always repeated.

Test: excess molar enthalpy (molar enthalpy of mixing); xn = mol fraction of the nth substance listed
Settings: Liquid, Flow calorimetry

CCO [ethanol] + O
Settings | excess molar enthalpy [kJ/mol]
333.15 K, 1824 kPa, x1 = 0.0079 | -0.0399
333.15 K, 1824 kPa, x1 = 0.016 | -0.0795
333.15 K, 1824 kPa, x1 = 0.0333 | -0.155
333.15 K, 1824 kPa, x1 = 0.0519 | -0.217
333.15 K, 1824 kPa, x1 = 0.0719 | -0.266
333.15 K, 1824 kPa, x1 = 0.0936 | -0.297
333.15 K, 1824 kPa, x1 = 0.1172 | -0.308
333.15 K, 1824 kPa, x1 = 0.143 | -0.306
333.15 K, 1824 kPa, x1 = 0.1712 | -0.288
333.15 K, 1824 kPa, x1 = 0.2023 | -0.259
333.15 K, 1824 kPa, x1 = 0.2366 | -0.231
333.15 K, 1824 kPa, x1 = 0.2747 | -0.19
333.15 K, 1824 kPa, x1 = 0.3173 | -0.147
333.15 K, 1824 kPa, x1 = 0.3653 | -0.101
333.15 K, 1824 kPa, x1 = 0.4196 | -0.0523
333.15 K, 1824 kPa, x1 = 0.4818 | -0.0073
333.15 K, 1824 kPa, x1 = 0.5535 | 0.0274
333.15 K, 1824 kPa, x1 = 0.6372 | 0.0418
333.15 K, 1824 kPa, x1 = 0.7361 | 0.0312
333.15 K, 1824 kPa, x1 = 0.8548 | 0.0006
333.15 K, 1824 kPa, x1 = 0.9236 | -0.0155
333.15 K, 1824 kPa, x1 = 0.9608 | -0.0121
363.15 K, 1203 kPa, x1 = 0.0079 | -0.0112
363.15 K, 1203 kPa, x1 = 0.016 | -0.0235
363.15 K, 1203 kPa, x1 = 0.0333 | -0.0465
363.15 K, 1203 kPa, x1 = 0.0518 | -0.0592
363.15 K, 1203 kPa, x1 = 0.0719 | -0.0586
363.15 K, 1203 kPa, x1 = 0.0936 | -0.0453
363.15 K, 1203 kPa, x1 = 0.1172 | -0.0202
363.15 K, 1203 kPa, x1 = 0.143 | 0.0157
363.15 K, 1203 kPa, x1 = 0.1712 | 0.0549
363.15 K, 1203 kPa, x1 = 0.2022 | 0.0991
363.15 K, 1203 kPa, x1 = 0.2365 | 0.144
363.15 K, 1203 kPa, x1 = 0.2746 | 0.191
363.15 K, 1203 kPa, x1 = 0.3173 | 0.241
363.15 K, 1203 kPa, x1 = 0.3652 | 0.288
363.15 K, 1203 kPa, x1 = 0.4196 | 0.332
363.15 K, 1203 kPa, x1 = 0.4817 | 0.359
363.15 K, 1203 kPa, x1 = 0.5534 | 0.366
363.15 K, 1203 kPa, x1 = 0.6371 | 0.34
363.15 K, 1203 kPa, x1 = 0.736 | 0.268
363.15 K, 1203 kPa, x1 = 0.8548 | 0.147
363.15 K, 1203 kPa, x1 = 0.9236 | 0.0752
383.15 K, 1500 kPa, x1 = 0.0333 | 0.012
383.15 K, 1500 kPa, x1 = 0.0719 | 0.0617
383.15 K, 1500 kPa, x1 = 0.1172 | 0.142
383.15 K, 1500 kPa, x1 = 0.1712 | 0.246
383.15 K, 1500 kPa, x1 = 0.2365 | 0.359
383.15 K, 1500 kPa, x1 = 0.3173 | 0.469
383.15 K, 1500 kPa, x1 = 0.4196 | 0.554
383.15 K, 1500 kPa, x1 = 0.5534 | 0.579
383.15 K, 1500 kPa, x1 = 0.6371 | 0.544
383.15 K, 1500 kPa, x1 = 0.736 | 0.445
383.15 K, 1500 kPa, x1 = 0.7926 | 0.371
383.15 K, 1500 kPa, x1 = 0.8548 | 0.27
383.15 K, 1500 kPa, x1 = 0.9236 | 0.146

CCOC(C)=O [ethyl acetate] + O
353.15 K, 1272 kPa
Settings | excess molar enthalpy
x1 = 0.0096 | 0.0209 kJ/mol
x1 = 0.0201 | 0.0446 kJ/mol
x1 = 0.0441 | 0.0917 kJ/mol
x1 = 0.058 | 0.119 kJ/mol
x1 = 0.0733 | 0.149 kJ/mol
x1 = 0.0905 | 0.182 kJ/mol and 0.183 kJ/mol
x1 = 0.1096 | 0.22 kJ/mol
x1 = 0.1313 | 0.264 kJ/mol
x1 = 0.1559 | 0.311 kJ/mol
x1 = 0.1842 | 0.364 kJ/mol
x1 = 0.2169 | 0.43 kJ/mol
x1 = 0.2554 | 0.505 kJ/mol
x1 = 0.3012 | 0.594 kJ/mol
x1 = 0.3565 | 0.704 kJ/mol
x1 = 0.4249 | 0.838 kJ/mol
x1 = 0.5114 | 1 kJ/mol
x1 = 0.5639 | 1.1 kJ/mol
x1 = 0.6244 | 1.23 kJ/mol
x1 = 0.6949 | 1.36 kJ/mol
x1 = 0.8258 | 1.2 kJ/mol
x1 = 0.8781 | 0.94 kJ/mol
x1 = 0.9359 | 0.592 kJ/mol

CC(=O)O [acetic acid] + CCOC(C)=O
323.15 K, 1548 kPa
Settings | excess molar enthalpy [kJ/mol]
x2 = 0.0148 | -0.0074
x2 = 0.03 | -0.0148
x2 = 0.0613 | -0.0266
x2 = 0.1108 | -0.0387
x2 = 0.1637 | -0.0437
x2 = 0.2403 | -0.0394
x2 = 0.3246 | -0.0264
x2 = 0.4179 | -0.0055
x2 = 0.5217 | 0.0219
x2 = 0.6379 | 0.0539
x2 = 0.7347 | 0.073
x2 = 0.8409 | 0.0786
x2 = 0.9178 | 0.0638
x2 = 0.9582 | 0.044

CCOC(C)=O [ethyl acetate] + CCO
Settings | excess molar enthalpy [kJ/mol]
363.15 K, 1548 kPa, x1 = 0.0151 | 0.0973
363.15 K, 1548 kPa, x1 = 0.0305 | 0.198
363.15 K, 1548 kPa, x1 = 0.0624 | 0.392
363.15 K, 1548 kPa, x1 = 0.0956 | 0.578
363.15 K, 1548 kPa, x1 = 0.1302 | 0.757
363.15 K, 1548 kPa, x1 = 0.1664 | 0.926
363.15 K, 1548 kPa, x1 = 0.2042 | 1.083
363.15 K, 1548 kPa, x1 = 0.2438 | 1.228
363.15 K, 1548 kPa, x1 = 0.2853 | 1.374
363.15 K, 1548 kPa, x1 = 0.3288 | 1.489
363.15 K, 1548 kPa, x1 = 0.3745 | 1.582
363.15 K, 1548 kPa, x1 = 0.4226 | 1.667
363.15 K, 1548 kPa, x1 = 0.4732 | 1.717
363.15 K, 1548 kPa, x1 = 0.5265 | 1.71
363.15 K, 1548 kPa, x1 = 0.5828 | 1.69
363.15 K, 1548 kPa, x1 = 0.6424 | 1.618
363.15 K, 1548 kPa, x1 = 0.7054 | 1.486
363.15 K, 1548 kPa, x1 = 0.7724 | 1.276
363.15 K, 1548 kPa, x1 = 0.8435 | 0.972
363.15 K, 1548 kPa, x1 = 0.9192 | 0.555
363.15 K, 1548 kPa, x1 = 0.9589 | 0.292
413.15 K, 1307 kPa, x1 = 0.0151 | 0.108
413.15 K, 1307 kPa, x1 = 0.0306 | 0.222
413.15 K, 1307 kPa, x1 = 0.0624 | 0.439
413.15 K, 1307 kPa, x1 = 0.0956 | 0.646
413.15 K, 1307 kPa, x1 = 0.1302 | 0.841
413.15 K, 1307 kPa, x1 = 0.1664 | 1.028
413.15 K, 1307 kPa, x1 = 0.2042 | 1.198
413.15 K, 1307 kPa, x1 = 0.2438 | 1.36
413.15 K, 1307 kPa, x1 = 0.2853 | 1.502
413.15 K, 1307 kPa, x1 = 0.3288 | 1.623
413.15 K, 1307 kPa, x1 = 0.3745 | 1.725
413.15 K, 1307 kPa, x1 = 0.4226 | 1.773
413.15 K, 1307 kPa, x1 = 0.4732 | 1.815
413.15 K, 1307 kPa, x1 = 0.5265 | 1.812
413.15 K, 1307 kPa, x1 = 0.5829 | 1.765
413.15 K, 1307 kPa, x1 = 0.6424 | 1.663
413.15 K, 1307 kPa, x1 = 0.7055 | 1.502
413.15 K, 1307 kPa, x1 = 0.7724 | 1.261
413.15 K, 1307 kPa, x1 = 0.8435 | 0.939
413.15 K, 1307 kPa, x1 = 0.9192 | 0.524
413.15 K, 1307 kPa, x1 = 0.9589 | 0.276

CC(=O)O [acetic acid] + CCO
323.15 K, 1548 kPa
Settings | excess molar enthalpy [kJ/mol]
x1 = 0.0247 | 0.0451
x1 = 0.0493 | 0.0844
x1 = 0.0987 | 0.145
x1 = 0.1729 | 0.196
x1 = 0.2473 | 0.215
x1 = 0.3467 | 0.212
x1 = 0.4464 | 0.182
x1 = 0.5464 | 0.148
x1 = 0.6467 | 0.111
x1 = 0.7473 | 0.0803
x1 = 0.8229 | 0.0608
x1 = 0.8987 | 0.0389
x1 = 0.9493 | 0.0211
x1 = 0.9746 | 0.0117
